In patent US20250034600A1, “ONIUM SALT COMPOSITIONS, METHODS FOR PRODUCING CELLULOSE HYDROLYSATES, ALCOHOLS AND/OR ORGANIC ACIDS IN THE PRESENCE OF ONIUM SALT COMPOSITIONS” (KOEI CHEMICAL COMPANY, LIMITED, priority 2023, published 2025) one finds Glucose conversion rate, Ethanol yield and MIC value data, which are given here for four compounds.

Assay [1] relates to cellulase (produced by Sigma). Put plainly: Enzymatic hydrolysis of microcrystalline cellulose with cellulase in the presence of the onium salt. The assay is classed as biochemical. As to conditions: 1.00 g microcrystalline cellulose in 5.00 g onium salt; 95.0 g water, 10 μL cellulase, 4 days; calculated from cellulose residue. The method, then: 5.00 g of 1,3-bis(3-methoxypropyl)imidazolium acetate was placed in a flask and maintained at 50° C. 1.00 g of microcrystalline cellulose (Avicel (registered trademark) PH-101) was added at 50° C., and the resulting mixture was stirred until visual observation confirmed that microcrystalline cellulose had been completely dissolved. 95.0 g of ultrapure water and 10 μL of cellulase (produced by Sigma) were added, and the resulting mixture was stirred for 4 days. The remaining cellulose residue was recovered by filtration, and the glucose conversion rate was calculated.
The same procedure as in Example 1 was repeated except that 1-ethyl-3-methylimidazolium acetate was used in place of the 1,3-bis(3-methoxypropyl)imidazolium acetate used in Example 1.

A further assay concerns dry yeast. Put plainly: Fermentation of glucose with dry yeast to ethanol in the presence of the onium salt. In kind it is cell-based. The settings on record: 0.20 g onium salt, 0.5 g glucose, 9.6 g water, 0.05 g dry yeast, stand overnight; ethanol quantified by GC. The method, then:
(§1) 0.20 g of 1,3-bis(3-methoxypropyl)imidazolium acetate, 0.5 g of glucose (β-D-glucose (including α-D-glucose), produced by Tokyo Chemical Industry Co., Ltd.), and 9.6 g of ultrapure water were placed in a sample tube. The resulting mixture was stirred until the glucose was completely dissolved. After the glucose had been completely dissolved, 0.05 g of dry yeast was added and the resulting mixture was allowed to stand overnight. After filtering off the insoluble matter, the amount of ethanol produced was quantified by GC (gas chromatography) to calculate the ethanol yield.
as §1, with “1,3-bis(methoxyethoxypropyl)imidazolium acetate ([(MeOEtOPr)2Im][AcO]),” for “1,3-bis(3-methoxypropyl)imidazolium acetate,”, “added. The” for “added and the”
0.20 g of 1,3-bis(ethoxypropyl)imidazolium acetate ([(EtOPr)2Im][AcO]), 0.5 g of glucose (β-D-glucose (including α-D-glucose), produced by Tokyo Chemical Industry Co., Ltd.), and 9.6 g of ultrapure water were placed in a sample tube. The resulting mixture was stirred until the glucose was completely dissolved. After the glucose had been completely dissolved, 0.05 g of dry yeast was added and the resulting mixture was allowed to stand overnight. After filtering off the insoluble matter, the amount of ethanol produced was quantified by GC (gas chromatography) to calculate the ethanol yield.
The same procedure as in Example 2 was repeated except that 1-ethyl-3-methylimidazolium acetate was used in place of the 1,3-bis(3-methoxypropyl)imidazolium acetate used in Example 2.

Assay [2] relates to yeast (Saccharomyces cerevisiae). As to the kind of experiment: Antibacterial test (minimum inhibitory concentration, MIC value) against yeast. As to conditions: lower MIC = greater inhibition. The assay is classed as cell-based. The method, then:
An antibacterial test (measurement of minimum inhibitory concentration (MIC value)) of 1,3-bis(3-methoxypropyl)imidazolium acetate and 1-ethyl-3-methylimidazolium acetate against yeast (Saccharomyces cerevisiae) was carried out. A lower MIC value indicates a greater degree of inhibition of enzymatic and/or microbial activity.

Assay [3] deals with cellulase (produced by Sigma) and dry yeast. As to the kind of experiment: Cellulose dissolution, cellulase hydrolysis and dry yeast fermentation to ethanol in one pot in the presence of the onium salt. The assay is classed as cell-based. As to conditions: 2.00 g onium salt, 0.50 g microcrystalline cellulose, 80° C. 3 h; 38.0 g water, 20 μL cellulase, 50° C. 10 h; 0.50 g dry yeast, 30° C. 7 h; GC. How it is done: 2.00 g of 1,3-bis(3-methoxypropyl)imidazolium acetate was placed in a sample tube, and 0.50 g of microcrystalline cellulose (Avicel (registered trademark) PH-101) was added. The resulting mixture was heated and stirred at 80° C. for 3 hours. After confirming by visual observation that the microcrystalline cellulose had been […], 38.0 g of ultrapure water and 20 μL of cellulase (produced by Sigma) were added. The resulting mixture was stirred at 50° C. for 10 hours. 0.50 g of dry yeast was then added and the resulting mixture was gently stirred at 30° C. After 7 hours, the insoluble matter was filtered off, and the amount of ethanol produced was quantified by GC (gas chromatography) to calculate the ethanol yield.
The same procedure as in Example 5 was repeated, except that 1-ethyl-3-methylimidazolium acetate was used in place of the 1,3-bis(3-methoxypropyl)imidazolium acetate used in Example 5.
The same procedure as in Example 5 was repeated, except that the 1,3-bis(3-methoxypropyl)imidazolium acetate used in Example 5 was not added and 2.00 g of ultrapure water was used in place of 2.00 g of 1,3-bis(3-methoxypropyl)imidazolium acetate.

On to `CC(=O)[O-].CCn1cc[n+](C)c1` [1-Ethyl-3-methylimidazolium acetate, 1-ethyl-3-methylimidazolium acetate, reference compound], for which, in assay [1], the Glucose conversion rate was 8%. Moreover, the Ethanol yield in the assay on dry yeast came out at 14.2%; in assay [3] it was 16.0. The compound also returned an MIC value in assay [2] of 0.5%.
On to `CC(=O)[O-].CCOCCCn1cc[n+](CCCOCC)c1` [[EtOPr]2Im] [AcO], 1,3-bis(ethoxypropyl)imidazolium acetate], for which the Ethanol yield in the assay on dry yeast worked out at 46.38%.
On the same count and under the same terms, the figure for `CC(=O)[O-].COCCOCCCn1cc[n+](CCCOCCOC)c1` [[MeOEtOPr]2Im] [AcO], 1,3-bis(methoxyethoxypropyl)imidazolium acetate] is 53.77%.
Take `CC(=O)[O-].COCCCn1cc[n+](CCCOC)c1` [[MeOPr]2Im] [AcO], 1,3-bis(3-methoxypropyl)imidazolium acetate]: the Glucose conversion rate in assay [1] is 73%. The Ethanol yield in the assay with dry yeast was 66.64%; in assay [3], 51.5. In addition, the MIC value in assay [2] came to 5%.
